Results on 7 molecules are retold here after ChEMBL document CHEMBL1909046, “DrugMatrix in vitro pharmacology data”.

The target of one test is T1, Caspase-1 (Homo sapiens, UniProt P29466).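 Also: Caspase-1 enzyme inhibition assay with a peptide substrate; in other assays of this panel Not Active means under 50% inhibition at 10 µM.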
T1 sequence (P29466 whole entry): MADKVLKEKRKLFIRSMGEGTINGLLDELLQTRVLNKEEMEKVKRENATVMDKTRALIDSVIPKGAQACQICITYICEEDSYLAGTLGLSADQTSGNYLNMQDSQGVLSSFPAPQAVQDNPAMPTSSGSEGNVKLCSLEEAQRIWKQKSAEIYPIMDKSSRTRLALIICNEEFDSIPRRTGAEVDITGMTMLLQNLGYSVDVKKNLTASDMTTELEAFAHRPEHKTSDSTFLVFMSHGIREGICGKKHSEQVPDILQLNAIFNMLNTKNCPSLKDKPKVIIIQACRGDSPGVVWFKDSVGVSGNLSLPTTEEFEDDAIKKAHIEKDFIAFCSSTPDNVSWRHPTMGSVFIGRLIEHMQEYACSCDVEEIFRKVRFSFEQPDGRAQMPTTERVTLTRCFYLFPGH
Also on record: species or system Escherichia coli.

The nature of test [1]: DRUGMATRIX: Sigma2 radioligand binding (ligand: [3H] Ifenprodil). The note with it: Not Active = under 50% inhibition at 10 µM. Format: cell membranes, Rattus norvegicus, Wistar, Brain, Membrane.
The target of test [2] is T2, Muscarinic acetylcholine receptor M4 (Homo sapiens, UniProt P08173). Also: in other assays of this panel Not Active means under 50% inhibition at 10 µM.
T2 sequence (P08173 whole entry): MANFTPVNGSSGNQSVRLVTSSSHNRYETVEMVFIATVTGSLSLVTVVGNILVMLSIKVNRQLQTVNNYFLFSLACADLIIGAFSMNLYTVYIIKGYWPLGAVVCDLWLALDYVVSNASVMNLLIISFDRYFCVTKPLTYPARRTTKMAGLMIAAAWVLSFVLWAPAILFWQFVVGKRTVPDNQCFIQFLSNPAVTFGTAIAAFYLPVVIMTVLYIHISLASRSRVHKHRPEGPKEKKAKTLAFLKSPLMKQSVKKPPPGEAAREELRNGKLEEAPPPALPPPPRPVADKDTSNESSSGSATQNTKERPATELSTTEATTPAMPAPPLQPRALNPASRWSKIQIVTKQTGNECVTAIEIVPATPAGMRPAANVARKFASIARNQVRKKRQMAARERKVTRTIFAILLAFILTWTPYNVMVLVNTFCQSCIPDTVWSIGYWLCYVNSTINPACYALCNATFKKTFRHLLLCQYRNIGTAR
Format: cell membranes, CHO-K1, Membrane. To be noted: cho-k1.

Test [3] addresses Prostaglandin G/H synthase 1 (Homo sapiens, UniProt P23219). The test can be described thus: biochemical. The format is tissue-based, Platelet. To be noted: platelet.
In another test the target is Carbonic anhydrase 2 (Homo sapiens, UniProt P00918). As to the kind of experiment: DRUGMATRIX: Carbonic Anhydrase II enzyme inhibition (substrate: 4-Nitrophenyl acetate (4-NPA)). The note with it: erythrocyte; Not Active = under 50% inhibition at 10 µM. Format: tissue-based, Erythrocyte.
Test [4] concerns the target Mitogen-activated protein kinase 1 (Homo sapiens, UniProt P28482). As to the kind of experiment: DRUGMATRIX: Protein Serine/Threonine Kinase, ERK2 enzyme inhibition (substrate: Myelin Basic Protein). Also on record: species or system Escherichia coli. The note with it: Not Active = under 50% inhibition at 10 µM.
Test [5] concerns the target Matrix metalloproteinase-9 (Homo sapiens, UniProt P14780). The format is cell-based.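 Also: inhibition of isolated MMP-9 enzyme activity toward a synthetic peptide substrate, from the DrugMatrix protease screening panel; in other assays of this panel Not Active means under 50% inhibition at 10 µM.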
The target of the next test is Acetylcholinesterase (Homo sapiens, UniProt P22303). As to the kind of experiment: DRUGMATRIX: Acetylcholinesterase enzyme inhibition (substrate: acetylthiocholine). The format is cell-based, HEK293. To be noted: hek293; Not Active = under 50% inhibition at 10 µM.
Test [6] concerns the target Kappa-type opioid receptor (Homo sapiens, UniProt P41145). As to the kind of experiment: DRUGMATRIX: Opiate kappa (OP2, KOP) radioligand binding (ligand: [3H] Diprenorphine). Format: cell membranes, HEK293, Membrane. To be noted: hek293; Not Active = under 50% inhibition at 10 µM.
The next test has as its target Melanocortin receptor 4 (Homo sapiens, UniProt P32245). The format is cell membranes, Membrane. To be noted: hek293. Also: in other assays of this panel Not Active means under 50% inhibition at 10 µM.
Test [7] has as its target T3, 3-hydroxy-3-methylglutaryl-coenzyme A reductase (Homo sapiens, UniProt P04035).
T3 sequence (P04035 whole entry): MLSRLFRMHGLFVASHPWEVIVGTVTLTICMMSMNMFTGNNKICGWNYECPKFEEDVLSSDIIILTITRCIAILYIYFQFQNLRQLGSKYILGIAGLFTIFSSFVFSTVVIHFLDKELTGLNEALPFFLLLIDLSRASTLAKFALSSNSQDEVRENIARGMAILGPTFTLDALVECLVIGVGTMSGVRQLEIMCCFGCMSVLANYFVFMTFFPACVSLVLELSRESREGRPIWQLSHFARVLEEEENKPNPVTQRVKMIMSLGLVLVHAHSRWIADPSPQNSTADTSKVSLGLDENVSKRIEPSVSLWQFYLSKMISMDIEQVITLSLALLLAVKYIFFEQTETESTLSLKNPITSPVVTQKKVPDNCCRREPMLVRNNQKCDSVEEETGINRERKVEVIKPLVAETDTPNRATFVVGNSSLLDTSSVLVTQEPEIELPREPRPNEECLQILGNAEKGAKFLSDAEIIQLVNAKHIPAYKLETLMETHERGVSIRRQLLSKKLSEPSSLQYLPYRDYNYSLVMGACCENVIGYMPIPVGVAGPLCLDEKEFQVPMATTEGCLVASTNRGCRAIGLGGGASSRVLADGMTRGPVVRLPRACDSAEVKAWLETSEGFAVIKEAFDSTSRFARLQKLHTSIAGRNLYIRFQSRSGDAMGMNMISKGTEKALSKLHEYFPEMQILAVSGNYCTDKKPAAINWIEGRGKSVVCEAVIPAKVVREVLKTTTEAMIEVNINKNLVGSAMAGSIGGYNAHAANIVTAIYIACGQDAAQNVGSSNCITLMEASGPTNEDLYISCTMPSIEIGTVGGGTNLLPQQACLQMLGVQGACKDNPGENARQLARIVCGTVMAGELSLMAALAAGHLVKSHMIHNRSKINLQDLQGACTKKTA
Further details: species or system Escherichia coli.

In another test the target is T4, B2 bradykinin receptor (Homo sapiens, UniProt P30411). Also: in other assays of this panel Not Active means under 50% inhibition at 10 µM.
T4 sequence (P30411 whole entry): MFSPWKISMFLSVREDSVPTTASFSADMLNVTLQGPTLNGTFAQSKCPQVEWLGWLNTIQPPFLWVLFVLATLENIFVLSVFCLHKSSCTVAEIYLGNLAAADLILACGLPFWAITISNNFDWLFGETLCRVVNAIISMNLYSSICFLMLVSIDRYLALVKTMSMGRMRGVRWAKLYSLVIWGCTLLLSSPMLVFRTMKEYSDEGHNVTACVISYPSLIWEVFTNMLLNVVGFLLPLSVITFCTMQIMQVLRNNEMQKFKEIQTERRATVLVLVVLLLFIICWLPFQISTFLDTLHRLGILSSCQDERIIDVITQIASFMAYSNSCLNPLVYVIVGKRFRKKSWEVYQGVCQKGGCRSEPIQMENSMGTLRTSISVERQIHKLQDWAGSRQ
Format: cell membranes, Membrane. The note with it: chem-1.

Test [8] is described as follows: DRUGMATRIX: Potassium Channel [KATP] radioligand binding (ligand: [3H] Glyburide). To be noted: hit-t15; Not Active = under 50% inhibition at 10 µM. Format: cell membranes, Membrane.

Kappa-type opioid receptor, sequence (P41145 whole entry): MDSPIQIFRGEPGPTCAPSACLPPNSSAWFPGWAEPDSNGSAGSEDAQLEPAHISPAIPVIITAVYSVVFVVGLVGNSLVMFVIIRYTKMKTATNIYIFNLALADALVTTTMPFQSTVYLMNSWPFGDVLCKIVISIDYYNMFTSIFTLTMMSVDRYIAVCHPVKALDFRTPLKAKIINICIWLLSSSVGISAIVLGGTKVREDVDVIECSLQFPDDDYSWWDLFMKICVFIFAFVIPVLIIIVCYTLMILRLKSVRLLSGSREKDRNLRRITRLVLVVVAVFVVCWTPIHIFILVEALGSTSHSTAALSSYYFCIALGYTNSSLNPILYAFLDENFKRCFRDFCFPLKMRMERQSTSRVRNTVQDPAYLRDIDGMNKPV
Prostaglandin G/H synthase 1, sequence (P23219 whole entry): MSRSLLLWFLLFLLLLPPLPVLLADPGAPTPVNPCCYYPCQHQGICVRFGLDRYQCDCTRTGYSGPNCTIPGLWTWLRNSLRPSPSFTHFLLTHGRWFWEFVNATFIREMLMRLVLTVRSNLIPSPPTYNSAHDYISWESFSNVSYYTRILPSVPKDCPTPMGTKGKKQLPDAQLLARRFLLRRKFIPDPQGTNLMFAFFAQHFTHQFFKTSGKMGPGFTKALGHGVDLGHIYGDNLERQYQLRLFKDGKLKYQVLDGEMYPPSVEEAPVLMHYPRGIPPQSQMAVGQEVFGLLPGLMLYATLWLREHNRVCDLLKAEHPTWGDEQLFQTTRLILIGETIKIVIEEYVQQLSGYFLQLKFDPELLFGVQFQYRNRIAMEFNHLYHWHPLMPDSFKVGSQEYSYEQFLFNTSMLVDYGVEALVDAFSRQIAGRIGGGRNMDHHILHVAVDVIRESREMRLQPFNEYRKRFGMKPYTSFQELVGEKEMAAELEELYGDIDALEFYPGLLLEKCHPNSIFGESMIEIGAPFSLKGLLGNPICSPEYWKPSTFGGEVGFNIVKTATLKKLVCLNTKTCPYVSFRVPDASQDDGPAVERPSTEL
Melanocortin receptor 4, sequence (P32245 whole entry): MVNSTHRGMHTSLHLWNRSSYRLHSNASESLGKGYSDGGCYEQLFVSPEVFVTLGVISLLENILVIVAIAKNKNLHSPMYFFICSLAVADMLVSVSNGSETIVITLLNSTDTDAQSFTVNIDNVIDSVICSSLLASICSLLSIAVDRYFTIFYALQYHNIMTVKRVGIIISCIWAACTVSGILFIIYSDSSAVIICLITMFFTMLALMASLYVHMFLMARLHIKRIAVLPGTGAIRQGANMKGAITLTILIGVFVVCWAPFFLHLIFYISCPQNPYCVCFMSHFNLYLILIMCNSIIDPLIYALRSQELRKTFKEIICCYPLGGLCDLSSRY
Mitogen-activated protein kinase 1, sequence (P28482 whole entry): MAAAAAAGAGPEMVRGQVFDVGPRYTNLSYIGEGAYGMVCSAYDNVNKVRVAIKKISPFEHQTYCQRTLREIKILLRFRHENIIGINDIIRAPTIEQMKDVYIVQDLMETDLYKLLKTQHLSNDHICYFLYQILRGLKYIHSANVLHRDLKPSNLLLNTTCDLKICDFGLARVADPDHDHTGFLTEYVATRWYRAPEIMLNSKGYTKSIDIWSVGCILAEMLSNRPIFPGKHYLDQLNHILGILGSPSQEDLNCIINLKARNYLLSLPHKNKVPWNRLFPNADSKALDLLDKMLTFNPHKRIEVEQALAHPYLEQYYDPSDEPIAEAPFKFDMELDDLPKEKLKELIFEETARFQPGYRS
Acetylcholinesterase, sequence (P22303 whole entry): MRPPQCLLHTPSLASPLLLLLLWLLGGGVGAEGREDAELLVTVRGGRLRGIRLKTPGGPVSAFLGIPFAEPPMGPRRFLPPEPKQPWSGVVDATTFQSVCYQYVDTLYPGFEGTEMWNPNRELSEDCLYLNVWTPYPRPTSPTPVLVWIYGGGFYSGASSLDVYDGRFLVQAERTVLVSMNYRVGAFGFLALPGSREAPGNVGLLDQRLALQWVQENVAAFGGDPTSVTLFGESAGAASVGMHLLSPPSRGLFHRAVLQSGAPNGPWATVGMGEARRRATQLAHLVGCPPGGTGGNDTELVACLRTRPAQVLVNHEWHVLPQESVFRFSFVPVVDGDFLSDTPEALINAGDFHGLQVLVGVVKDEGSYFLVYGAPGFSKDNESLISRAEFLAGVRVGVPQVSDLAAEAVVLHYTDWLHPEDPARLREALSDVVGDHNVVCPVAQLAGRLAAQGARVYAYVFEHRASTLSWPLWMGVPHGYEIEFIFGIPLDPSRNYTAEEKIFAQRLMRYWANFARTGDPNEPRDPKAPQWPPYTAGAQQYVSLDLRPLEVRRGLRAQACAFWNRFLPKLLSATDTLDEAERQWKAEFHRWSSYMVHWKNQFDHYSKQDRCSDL
Matrix metalloproteinase-9, sequence (P14780 whole entry): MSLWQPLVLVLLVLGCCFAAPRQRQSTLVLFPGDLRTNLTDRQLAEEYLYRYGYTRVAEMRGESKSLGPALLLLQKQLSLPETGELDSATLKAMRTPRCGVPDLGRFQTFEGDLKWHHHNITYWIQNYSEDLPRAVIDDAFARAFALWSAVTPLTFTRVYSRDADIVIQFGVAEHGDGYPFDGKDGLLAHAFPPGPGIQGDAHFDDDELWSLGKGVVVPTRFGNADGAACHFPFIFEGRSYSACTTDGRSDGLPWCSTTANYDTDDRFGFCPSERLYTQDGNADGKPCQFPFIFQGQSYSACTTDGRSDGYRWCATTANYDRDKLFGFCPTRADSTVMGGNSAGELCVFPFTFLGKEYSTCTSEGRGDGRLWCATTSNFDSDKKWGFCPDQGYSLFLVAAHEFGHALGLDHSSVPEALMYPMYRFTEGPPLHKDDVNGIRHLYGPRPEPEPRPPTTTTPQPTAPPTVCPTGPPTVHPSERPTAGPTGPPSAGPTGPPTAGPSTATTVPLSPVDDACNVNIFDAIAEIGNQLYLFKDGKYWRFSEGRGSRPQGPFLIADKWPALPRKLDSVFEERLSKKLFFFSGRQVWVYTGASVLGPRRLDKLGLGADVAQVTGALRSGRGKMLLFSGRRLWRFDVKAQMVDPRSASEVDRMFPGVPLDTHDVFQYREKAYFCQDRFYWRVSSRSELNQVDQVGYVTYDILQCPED

In the case of `C=CC[C@@H]1/C=C(\C)C[C@H](C)C[C@H](OC)[C@H]2O[C@@](O)(C(=O)C(=O)N3CCCC[C@H]3C(=O)O[C@H](/C(C)=C/[C@@H]3CC[C@@H](O)[C@H](OC)C3)[C@H](C)[C@@H](O)CC1=O)[C@H](C)C[C@@H]2OC` [TACROLIMUS ANHYDROUS], the half-inhibitory concentration (IC50) result (against Caspase-1; in test [1]; in test [2]; in test [3]; on Carbonic anhydrase 2; in test [4]) was “Not Active” each time. In addition, the half-inhibitory concentration (IC50) result (in test [5]; against Acetylcholinesterase; in [6]; against Melanocortin receptor 4; in test [7]; against B2 bradykinin receptor) was “Not Active” throughout. In addition, the IC50 (as a rule, the concentration that gives 50% inhibition) in test [8] is “Not Active”. The Ki entry in test [1] and in [8] was “Not Active” throughout.

For `CC1CN(c2cc3c(cc2F)c(=O)c(C(=O)O)cn3-c2ccc(F)cc2F)CCN1` (stereo not given) [TEMAFLOXACIN], the concentration for half-maximal inhibition (IC50) result (against Caspase-1; in test [1]; in test [2]; in test [3]; against Carbonic anhydrase 2; in test [4]) was “Not Active” in each case. Besides, the IC50 result (in [5]; at Acetylcholinesterase; in test [6]; at Melanocortin receptor 4; in [7]; against B2 bradykinin receptor) was “Not Active” throughout. Besides, in test [8], the IC50 entry is given as “Not Active”. The Ki result in [1] and in test [8] was “Not Active” each time.

`CC(C)(C)NCC(O)c1cc(O)cc(O)c1` (stereo not given) [TERBUTALINE]: the IC50 result (on Caspase-1; in test [1]; in [2]; in test [3]; against Carbonic anhydrase 2; in [4]) was “Not Active” throughout. Moreover, the 50% inhibitory concentration (IC50) result (in test [5]; against Acetylcholinesterase; in test [6]; at Melanocortin receptor 4; in test [7]; against B2 bradykinin receptor) was “Not Active” in each case. For the same molecule, the 50% inhibitory concentration (IC50) result in test [8] is “Not Active”. Besides, the inhibition constant Ki result in test [1] and in test [8] was “Not Active” each time.

As to `CN(C)[C@@H]1C(O)=C(C(N)=O)C(=O)[C@@]2(O)C(O)=C3C(=O)c4c(O)cccc4[C@@](C)(O)[C@H]3C[C@@H]12` [TETRACYCLINE], the IC50 result (at Caspase-1; in test [1]; in test [2]; in [3]; at Carbonic anhydrase 2; in [4]) was “Not Active” in each case. Moreover, the IC50 result (in test [5]; against Acetylcholinesterase; in test [6]; on Melanocortin receptor 4; in test [7]; at B2 bradykinin receptor) was “Not Active” in each case. Besides, the 50% inhibitory concentration (IC50) entry in [8] is “Not Active”. Moreover, the inhibitory constant (Ki) result in test [1] and in test [8] was “Not Active” each time.

As to `c1ccc2[nH]c(-c3cscn3)nc2c1` [THIABENDAZOLE], the IC50 result (against Caspase-1; in test [1]; in [2]; in [3]; against Carbonic anhydrase 2; in test [4]) was “Not Active” throughout. The half-maximal inhibitory concentration (IC50) result (in [5]; against Acetylcholinesterase; in test [6]; against Melanocortin receptor 4; in test [7]; against B2 bradykinin receptor) was “Not Active” in each case. The 50% inhibitory concentration (IC50) result in test [8] is “Not Active”. In addition, the inhibition constant Ki entry in test [1] and in test [8] was “Not Active” throughout.

Turning to `Cc1ccc(C(=O)C(C)CN2CCCCC2)cc1` (stereo not given) [TOLPERISONE], the IC50 result against Caspase-1 was “Not Active”; in test [1] (read-out: IC50) it was 3.36 µM; in test [2] it was “Not Active”; in [3], “Not Active”; against Carbonic anhydrase 2, “Not Active”; in test [4], “Not Active”. In addition, the 50% inhibitory concentration (IC50) result (in [5]; against Acetylcholinesterase; in [6]; on Melanocortin receptor 4; in test [7]; on B2 bradykinin receptor) was “Not Active” in each case. Moreover, the concentration for half-maximal inhibition (IC50) entry in [8] is reported as “Not Active”. Besides, the results for the Ki in test [1] (read-out: Ki) and in test [8] were 2.07 µM and “Not Active”, respectively.

In the case of `NC(CO)(CO)CO` [TROMETHAMINE], the half-maximal inhibitory concentration (IC50) entry (against Caspase-1; in [1]; in test [2]; in [3]; against Carbonic anhydrase 2; in [4]) was “Not Active” each time. Further, the IC50 result (in [5]; against Acetylcholinesterase; in test [6]; against Melanocortin receptor 4; in test [7]; on B2 bradykinin receptor) was “Not Active” each time. Besides, the half-maximal inhibitory concentration (IC50) result in [8] is “Not Active”. Also, the inhibition constant Ki entry in test [1] and in test [8] was “Not Active” throughout.
